The target of assay [1] is T1, c-Met kinase domain recombinant protein (Homo sapiens, UniProt P08581).
T1 construct: 50 μL diluted solution of c-Met kinase domain recombinant protein in reaction buffer was added to initiate the reaction
Description: biochemical. Conditions: read-out: Inhibition rate at 10 μM (%). Summed up: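 Recombinant c-Met kinase domain phosphorylated immobilised Poly(Glu,Tyr)4:1 for 1 h at 37 °C in 50 mM HEPES pH 7.4, 50 mM MgCl2, 0.5 mM MnCl2, 0.2 mM Na3VO4, 1 mM DTT with ATP. Product measured by anti-phosphotyrosine PY99 ELISA (HRP, 490 nm), giving percent inhibition; ATP-free wells served as control.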

Assay [2] concerns the target T1, c-Met kinase domain recombinant protein. Put plainly: biochemical. The conditions noted are these: for inhibition at 0.1 µM: read-out: Average inhibition rate at 0.1 μM (%); for inhibition at 1 µM: read-out: Average inhibition rate at 1 μM (%); for inhibition at 10 µM: read-out: Average inhibition rate at 10 μM (%). Summed up:
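IC50 came from a four-parameter fit of inhibition rates measured by anti-phosphotyrosine (PY99/HRP) ELISA at 490 nm. The reaction ran 1 hour at 37° C with 5 μM ATP, c-Met kinase domain protein and Poly(Glu,Tyr)4:1-coated wells, in HEPES pH 7.4 buffer containing MgCl2, MnCl2, Na3VO4 and DTT.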

Like-named read-outs stand apart in the source and are kept apart here.

T1 sequence (P08581 1078-1345 limits assumed): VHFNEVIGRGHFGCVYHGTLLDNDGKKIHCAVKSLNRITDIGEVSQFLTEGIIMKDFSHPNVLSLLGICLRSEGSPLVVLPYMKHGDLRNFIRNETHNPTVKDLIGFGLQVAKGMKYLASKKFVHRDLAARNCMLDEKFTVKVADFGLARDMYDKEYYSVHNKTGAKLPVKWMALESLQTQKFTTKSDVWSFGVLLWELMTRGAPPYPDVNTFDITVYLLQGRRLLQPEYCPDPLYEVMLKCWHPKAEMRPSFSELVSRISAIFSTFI

The term inhibition denotes the change of the read-out against control, counted positive when it falls. `Cn1cc(-c2cnc3cnn(S(=O)(=O)c4cnc5ccc(-c6ccc(F)cc6F)cn45)c3c2)cn1` [Example 87, 1-{[6-(2,4-difluorophenyl)-imidazo[1,2-a]pyridine]-3-sulfonyl}-6-[(1-methyl)-4-pyrazolyl]-1-H-pyrazolo[4,3-b]pyridine]: the inhibition at 10 µM in assay [1] is over 76.8%. In assay [2], the inhibition at 0.1 µM was 33.8%, the inhibition at 1 µM is 72.7% and the inhibition at 10 µM turned out to be 72.5%.

`Cn1cc(-c2cnc3cnn(S(=O)(=O)c4cnc5ccc(-c6cc(F)c(F)c(F)c6)cn45)c3c2)cn1` [Example 88, 1-{[6-(3,4,5-trifluorophenyl)-imidazo[1,2-a]pyridine]-3-sulfonyl}-6-[(1-methyl)-4-pyrazolyl]-1-H-pyrazolo[4,3-b]pyridine]: the inhibition at 10 µM in assay [1] was over 70.2%. For the same compound, in assay [2], the inhibition at 0.1 µM was 1.1%, the inhibition at 1 µM was 59.4% and the inhibition at 10 µM worked out at 64.5%.

Turning to `COc1ccc(-c2ccc3ncc(S(=O)(=O)n4ncc5ncc(-c6cnn(C)c6)cc54)n3c2)cc1` [Example 89, 1-{[6-(4-methoxyphenyl)-imidazo[1,2-a]pyridine]-3-sulfonyl}-6-[(1-methyl)-4-pyrazolyl]-1-H-pyrazolo[4,3-b]pyridine], the inhibition at 10 µM in assay [1] was over 71.7%. Further, in assay [2], the inhibition at 0.1 µM worked out at 45.3%, the inhibition at 1 µM amounted to 79.9% and the inhibition at 10 µM came to 83.4%.

With `Cn1cc(-c2cnc3cnn(S(=O)(=O)c4cnc5ccc(-c6ccc(C#N)cc6)cn45)c3c2)cn1` [Example 92, 1-{[6-(4-cyanophenyl)-imidazo[1,2-a]pyridine]-3-sulfonyl}-6-[(1-methyl)-4-pyrazolyl]-1-H-pyrazolo[4,3-b]pyridine], in assay [1], the inhibition at 10 µM is over 71.9%. For the same compound, in assay [2], the inhibition at 0.1 µM came out at 82.8%, the inhibition at 1 µM was 79.1% and the inhibition at 10 µM turned out to be 78.9%.

Consider `Cn1cc(-c2cnc3cnn(S(=O)(=O)c4cnc5ccc(-c6ccc7c(c6)OCCO7)cn45)c3c2)cn1` [Example 93, 1-{[6-[6-(1,4-benzodioxanyl)]-imidazo[1,2-a]pyridine]-3-sulfonyl}-6-[(1-methyl)-4-pyrazolyl]-1-H-pyrazolo[4,3-b]pyridine], for which the inhibition at 10 µM in assay [1] was over 64.5%. In assay [2], the inhibition at 0.1 µM was 76.1%, the inhibition at 1 µM was 76.8% and the inhibition at 10 µM was determined as 77.9%.

Take `Cn1cc(-c2cnc3cnn(S(=O)(=O)c4cnc5ccc(-c6ccc(Cl)cc6)cn45)c3c2)cn1` [Example 94, 1-{[6-(4-chlorophenyl)-imidazo[1,2-a]pyridine]-3-sulfonyl}-6-[(1-methyl)-4-pyrazolyl]-1-H-pyrazolo[4,3-b]pyridine]: in assay [1], the inhibition at 10 µM is over 74.3%. Further, in assay [2], the inhibition at 0.1 µM worked out at 72.1%, the inhibition at 1 µM turned out to be 55.7% and the inhibition at 10 µM was found to be 83.9%.

As usually defined, the IC50 is the midpoint of a concentration-inhibition curve. For `COc1ccc(-c2ccc3ncc(S(=O)(=O)n4ncc5ncc(-c6cnn(C)c6)cc54)n3c2)cc1OC` [Example 96, 1-{[6-(3,4-dimethoxyphenyl)-imidazo[1,2-a]pyridine]-3-sulfonyl}-6-[(1-methyl)-4-pyrazolyl]-1-H-pyrazolo[4,3-b]pyridine], the inhibition at 10 µM in assay [1] is over 71.8%. In assay [2], the IC50 came out at 0.7 ± 0.1 nM, the inhibition at 0.1 µM is 56.6%, the inhibition at 1 µM amounted to 61.5% and the inhibition at 10 µM worked out at 68.3%.

For the compound `Cn1cc(-c2cnc3cnn(S(=O)(=O)c4cnc5ccc(-c6ccc7c(c6)OCO7)cn45)c3c2)cn1` [Example 98, 1-{[6-[5-(1,2-methylenedioxyphenyl)]-imidazo[1,2-a]pyridine]-3-sulfonyl}-6-[(1-methyl)-4-pyrazolyl]-1-H-pyrazolo[4,3-b]pyridine], the inhibition at 10 µM in assay [1] was over 77.9%. For the same compound, in assay [2], the half-maximal inhibitory concentration (IC50) turned out to be 1.4 ± 0.1 nM, the inhibition at 0.1 µM amounted to 50.6%, the inhibition at 1 µM turned out to be 66.8% and the inhibition at 10 µM was 74.3%.

These data come from US9988381B2, “Five-member-heterocycle fused pyridine compounds, method of producing the same, and use thereof” (SHANGHAI INSTITUTE OF MATERIA MEDICA, CHINESE ACADEMY OF …, priority 2013, dated 2018).
